Experimental data as given in US12559529B2, “NPY2 receptor agonists” (Boehringer Ingelheim International GmbH, priority 2019, dated 2026).
*1 amine or outer side, *2 acyl side, *3 side chain or, on linkers, in order; H or OH if unused. Where a SMILES comes first, the peptide text is derived from it. Side-chain parts run from the residue outwards. The star is where a group is joined. C18 diacid = O=C(O)CCCCCCCCCCCCCCCCC(=O)*; γGlu = O=C(O)[C@H](CCC(=O)[*:2])N[*:1]; Isovaleryl = CC(C)CC(=O)*; AEEA = NCCOCCOCC(=O)O

These compounds were tested against T1, Human Neuropeptide Y2 Receptor (Homo sapiens, UniProt P49146) (assay: Radioligand binding competition assay (RLB)). Details: Table 3; human 125I-PYY (1-36) 0.02 nM, Y2 receptor membranes; read-out: Ki.
T1 construct: purchased CHEMICON HTS066M
T1 sequence (P49146 1-381): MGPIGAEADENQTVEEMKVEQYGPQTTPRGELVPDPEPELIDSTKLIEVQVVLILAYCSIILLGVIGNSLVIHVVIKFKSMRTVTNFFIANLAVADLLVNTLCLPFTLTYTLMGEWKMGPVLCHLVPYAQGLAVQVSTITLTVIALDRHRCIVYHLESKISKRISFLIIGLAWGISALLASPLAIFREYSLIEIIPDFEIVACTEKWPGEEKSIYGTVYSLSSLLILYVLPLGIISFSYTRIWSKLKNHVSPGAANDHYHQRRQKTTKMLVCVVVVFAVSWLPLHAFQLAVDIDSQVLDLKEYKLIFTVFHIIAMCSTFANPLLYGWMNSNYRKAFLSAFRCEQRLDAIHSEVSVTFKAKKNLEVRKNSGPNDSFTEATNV
Procedure, shortened: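 IC50 values come from nonlinear regression of sigmoidal dose-response curves of filter-bound radioactivity. Peptides competed with radioligand at human Y2 receptor membranes (0.5 μg protein/well) for 2 h at room temperature in pH 7.4 HEPES buffer containing Mg2+, Ca2+ and 0.2% ovalbumin.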
Work on `CC(C)CC(=O)N[C@@H](C)C(=O)N1CCC[C@H]1C(=O)N[C@@H](CCC(=O)O)C(=O)N[C@@H](CCCCNC(=O)COCCOCCNC(=O)COCCOCCNC(=O)CC[C@H](NC(=O)CCCCCCCCCCCCCCCCC(=O)O)C(=O)O)C(=O)N1CCC[C@H]1C(=O)N[C@@H](CCC(=O)O)C(=O)N[C@@H](CCC(=O)O)C(=O)N[C@@H](CC(=O)O)C(=O)N[C@@H](CO)C(=O)N[C@@H](C)C(=O)N1CCC[C@H]1C(=O)N[C@@H](CCC(=O)O)C(=O)N[C@@H](CCC(=O)O)C(=O)N[C@@H](CC(C)C)C(=O)N[C@@H](CCC(N)=O)C(=O)N[C@@H](CCCNC(=N)N)C(=O)N[C@@H](Cc1ccc(O)cc1)C(=O)N[C@@H](Cc1ccc(O)cc1)C(=O)N[C@H](C(=O)N[C@@H](CO)C(=O)N[C@@H](CC(C)C)C(=O)N[C@@H](CCCNC(=N)N)C(=O)N[C@@H](Cc1c[nH]cn1)C(=O)N[C@@H](Cc1ccc(O)cc1)C(=O)N[C@@H](Cc1ccc(O)cc1)C(=O)N[C@@H](CC(N)=O)C(=O)N[C@@H](Cc1c[nH]c2ccccc12)C(=O)N[C@@H](CC(C)C)C(=O)N[C@H](C(=O)N[C@@H](CCCNC(=N)N)C(=O)N[C@@H](CCC(N)=O)C(=O)N[C@@H](CCCNC(=N)N)C(=O)N[C@@H](Cc1ccc(O)cc1)C(N)=O)[C@@H](C)O)C(C)C` [Compound 67, N{alpha-4}-(3-methylbutanoyl)-N{epsilon-7}-[2-(2-{2-[2-(2-{2-[(4S)-4-carboxy-4-(17-carboxyheptadecanamido)butanamido]ethoxy}ethoxy)acetamido]ethoxy}ethoxy)acetamido]-[4A,7K,9E,12S,13A,18Q,22V,28Y,30W,31L]hPYY (4-36)] yielded a Ki of 4.37 nM.
`CC(C)CC(=O)N[C@@H](C)C(=O)N1CCC[C@H]1C(=O)N[C@@H](CCC(=O)O)C(=O)N[C@@H](CCCCNC(=O)COCCOCCNC(=O)COCCOCCNC(=O)CC[C@H](NC(=O)CCCCCCCCCCCCCCCCC(=O)O)C(=O)O)C(=O)N1CCC[C@H]1C(=O)N[C@@H](CCC(=O)O)C(=O)N[C@@H](CCC(=O)O)C(=O)N[C@@H](CCC(=O)O)C(=O)N[C@@H](C)C(=O)N[C@@H](CO)C(=O)N1CCC[C@H]1C(=O)N[C@@H](CCC(=O)O)C(=O)N[C@@H](CCC(=O)O)C(=O)N[C@@H](CC(C)C)C(=O)N[C@@H](CCC(N)=O)C(=O)N[C@@H](C)C(=O)N[C@@H](Cc1ccc(O)cc1)C(=O)N[C@@H](Cc1ccc(O)cc1)C(=O)N[C@H](C(=O)N[C@@H](CO)C(=O)N[C@@H](CC(C)C)C(=O)N[C@@H](CCCNC(=N)N)C(=O)N[C@@H](Cc1c[nH]cn1)C(=O)N[C@@H](Cc1ccc(O)cc1)C(=O)N[C@@H](Cc1ccc(O)cc1)C(=O)N[C@@H](CC(N)=O)C(=O)N[C@@H](Cc1c[nH]c2ccccc12)C(=O)N[C@@H](CC(C)C)C(=O)N[C@H](C(=O)N[C@@H](CCCNC(=N)N)C(=O)N[C@@H](CCC(N)=O)C(=O)N[C@@H](CCCNC(=N)N)C(=O)N[C@@H](Cc1ccc(O)cc1)C(N)=O)[C@@H](C)O)C(C)C` [Compound 68, N{alpha-4}-(3-methylbutanoyl)-N{epsilon-7}-[2-(2-{2-[2-(2-{2-[(4S)-4-carboxy-4-(17-carboxyheptadecanamido)butanamido]ethoxy}ethoxy)acetamido]ethoxy}ethoxy)acetamido]-[4A,7K,9E,11E,18Q,19A,22V,28Y,30W,31L]hPYY (4-36)] (Isovaleryl-APEK([AEEA-AEEA-γGlu-C18 diacid])PEEEASPEELQAYYVSLRHYYNWLTRQRY-NH2) was tested, and the Ki was 8.47 nM.
`CC(C)CC(=O)N[C@@H](C)C(=O)N1CCC[C@H]1C(=O)N[C@@H](CCC(=O)O)C(=O)N[C@@H](CCCCNC(=O)COCCOCCNC(=O)COCCOCCNC(=O)CC[C@H](NC(=O)CCCCCCCCCCCCCCCCC(=O)O)C(=O)O)C(=O)N1CCC[C@H]1C(=O)N[C@@H](CCC(=O)O)C(=O)N[C@@H](CCC(=O)O)C(=O)N[C@@H](CC(=O)O)C(=O)N[C@@H](CO)C(=O)N[C@@H](CO)C(=O)N[C@@H](C)C(=O)N[C@@H](CCC(=O)O)C(=O)N[C@@H](CCC(=O)O)C(=O)N[C@@H](CC(C)C)C(=O)N[C@@H](CCC(N)=O)C(=O)N[C@@H](CCCNC(=N)N)C(=O)N[C@@H](Cc1ccc(O)cc1)C(=O)N[C@@H](Cc1ccc(O)cc1)C(=O)N[C@H](C(=O)N[C@@H](CO)C(=O)N[C@@H](CC(C)C)C(=O)N[C@@H](CCCNC(=N)N)C(=O)N[C@@H](Cc1c[nH]cn1)C(=O)N[C@@H](Cc1ccc(O)cc1)C(=O)N[C@@H](Cc1ccc(O)cc1)C(=O)N[C@@H](CC(N)=O)C(=O)N[C@@H](Cc1c[nH]c2ccccc12)C(=O)N[C@@H](CC(C)C)C(=O)N[C@H](C(=O)N[C@@H](CCCNC(=N)N)C(=O)N[C@@H](CCC(N)=O)C(=O)N[C@@H](CCCNC(=N)N)C(=O)N[C@@H](Cc1ccc(O)cc1)C(N)=O)[C@@H](C)O)C(C)C` [Compound 69, N{alpha-4}-(3-methylbutanoyl)-N{epsilon-7}-[2-(2-{2-[2-(2-{2-[(4S)-4-carboxy-4-(17-carboxyheptadecanamido)butanamido]ethoxy}ethoxy)acetamido]ethoxy}ethoxy)acetamido]-[4A,7K,9E,12S,14A,18Q,22V,28Y,30W,31L]hPYY (4-36)] showed a Ki of 5.74 nM.
Work on `CC(C)CC(=O)N[C@@H](C)C(=O)N1CCC[C@H]1C(=O)N[C@@H](CCC(=O)O)C(=O)N[C@@H](CCCCNC(=O)COCCOCCNC(=O)COCCOCCNC(=O)CC[C@H](NC(=O)CCCCCCCCCCCCCCCCC(=O)O)C(=O)O)C(=O)N1CCC[C@H]1C(=O)N[C@@H](CCC(=O)O)C(=O)N[C@@H](CCC(=O)O)C(=O)N[C@@H](C)C(=O)N[C@@H](C)C(=O)N[C@@H](CO)C(=O)N1CCC[C@H]1C(=O)N[C@@H](CCC(=O)O)C(=O)N[C@@H](CCC(=O)O)C(=O)N[C@@H](CC(C)C)C(=O)N[C@@H](CCC(N)=O)C(=O)N[C@@H](CCCNC(=N)N)C(=O)N[C@@H](Cc1ccc(O)cc1)C(=O)N[C@@H](CCC(=O)O)C(=O)N[C@H](C(=O)N[C@@H](CO)C(=O)N[C@@H](CC(C)C)C(=O)N[C@@H](CCCNC(=N)N)C(=O)N[C@@H](Cc1c[nH]cn1)C(=O)N[C@@H](Cc1ccc(O)cc1)C(=O)N[C@@H](Cc1ccc(O)cc1)C(=O)N[C@@H](CC(N)=O)C(=O)N[C@@H](Cc1c[nH]c2ccccc12)C(=O)N[C@@H](CC(C)C)C(=O)N[C@H](C(=O)N[C@@H](CCCNC(=N)N)C(=O)N[C@@H](CCC(N)=O)C(=O)N[C@@H](CCCNC(=N)N)C(=O)N[C@@H](Cc1ccc(O)cc1)C(N)=O)[C@@H](C)O)C(C)C` [Compound 70, N{alpha-4}-(3-methylbutanoyl)-N{epsilon-7}-[2-(2-{2-[2-(2-{2-[(4S)-4-carboxy-4-(17-carboxyheptadecanamido)butanamido]ethoxy}ethoxy)acetamido]ethoxy}ethoxy)acetamido]-[4A,7K,9E,11A,18Q,21E,22V,28Y,30W,31L]hPYY (4-36)] (Isovaleryl-APEK([AEEA-AEEA-γGlu-C18 diacid])PEEAASPEELQRYEVSLRHYYNWLTRQRY-NH2) yielded a Ki of 4.86 nM.
In the case of `CC(C)CC(=O)N[C@@H](C)C(=O)N1CCC[C@H]1C(=O)N[C@@H](CCC(=O)O)C(=O)N[C@@H](CCCCNC(=O)COCCOCCNC(=O)COCCOCCNC(=O)CC[C@H](NC(=O)CCCCCCCCCCCCCCCCC(=O)O)C(=O)O)C(=O)N1CCC[C@H]1C(=O)N[C@@H](CCC(=O)O)C(=O)N[C@@H](CCC(=O)O)C(=O)N[C@@H](CCC(=O)O)C(=O)N[C@@H](C)C(=O)N[C@@H](CO)C(=O)N1CCC[C@H]1C(=O)N[C@@H](CO)C(=O)N[C@@H](CCC(=O)O)C(=O)N[C@@H](CC(C)C)C(=O)N[C@@H](CCC(N)=O)C(=O)N[C@@H](CCCNC(=N)N)C(=O)N[C@@H](Cc1ccc(O)cc1)C(=O)N[C@@H](Cc1ccc(O)cc1)C(=O)N[C@H](C(=O)N[C@@H](CO)C(=O)N[C@@H](CC(C)C)C(=O)N[C@@H](CCCNC(=N)N)C(=O)N[C@@H](Cc1c[nH]cn1)C(=O)N[C@@H](Cc1ccc(O)cc1)C(=O)N[C@@H](Cc1ccc(O)cc1)C(=O)N[C@@H](CC(N)=O)C(=O)N[C@@H](Cc1c[nH]c2ccccc12)C(=O)N[C@@H](CC(C)C)C(=O)N[C@H](C(=O)N[C@@H](CCCNC(=N)N)C(=O)N[C@@H](CCC(N)=O)C(=O)N[C@@H](CCCNC(=N)N)C(=O)N[C@@H](Cc1ccc(O)cc1)C(N)=O)[C@@H](C)O)C(C)C` [Compound 71, N{alpha-4}-(3-methylbutanoyl)-N{epsilon-7}-[2-(2-{2-[2-(2-{2-[(4S)-4-carboxy-4-(17-carboxyheptadecanamido)butanamido]ethoxy}ethoxy)acetamido]ethoxy}ethoxy)acetamido]-[4A,7K,9E,11E,15S,18Q,22V,28Y,30W,31L]hPYY (4-36)] (Isovaleryl-APEK([AEEA-AEEA-γGlu-C18 diacid])PEEEASPSELQRYYVSLRHYYNWLTRQRY-NH2), the Ki is reported as 5.22 nM.
